Measured values published in patent publication US20230348376A1 (TEIJIN PHARMA LIMITED, priority 2020, published 2023).
pEC50: −log10 of the molar value.

Tests used:
[1] = test system: mouse neural stem cells (NSCs); assay: Promoting activity in oligodendrocyte differentiation of mouse neural stem cell (GalC immunostaining); type: cell-based; settings: for Gal/C positive ratio Average value: day 10, N=5
Protocol: To NSC basal medium (100 mL) included in this product, B27 (1 mL), Penicillin-Streptomycin (1 mL), Glutamine (1 mL), bFGF (20 μL), EGF (10 μL), and Heparin (100 μL) were added to prepare the growth medium. Mouse neural stem cells were reconstituted in a T-25 flask using the growth medium and proliferated as a neurosphere by suspension culture. The cells were expanded by passaging at a split ratio=1:2 in a CO2 incubator (5% CO2, 37° C., wet) to obtain the required number of cells. ACCUTASE (Innovative Cell Technologies, Cat. No. AT104) was used as the passage reagent.
The differentiation medium containing test substance was prepared to a target final concentration by diluting a solution of 20 mM compound in DMSO to 10-fold with DMSO and then to 2×10^5-fold with the differentiation medium. Additive-free differentiation medium for control was prepared by diluting DMSO to 2×10^5-fold with the differentiation medium to be a final concentration of 5×10^−5%.
The mouse neural stem cells were seeded on a poly-L-Lysine/Laminin-coated 96-well plate at a cell density of 2.0×10^4 cells/100 μL/well using the differentiation medium and the culture was started in a CO2 incubator (5% CO2, 37° C., wet). The next day, the medium was replaced with the differentiation medium containing a test substance or an additive-free differentiation medium for control, and evaluation of the test substance (N=5) was started (day 0). The medium was replaced every other day by 60% of the medium in the wells. On day 10, cells were fixed and immunostained.
After the medium was removed, the cells were fixed by adding 100 μL of 4% paraformaldehyde-PBS and being incubated at room temperature for 30 minutes. Next, the cells were washed 3 times with PBS, 100 μL of 5% Goat Serum/PBS was added thereto, and the mixture was incubated at room temperature for 30 minutes to perform blocking and membrane permeation treatment. […] After the cells were washed 3 times with PBS, 100 μL of PBS was added to the wells, and the wells were photographed with fluorescence microscopy. Images were taken under the same condition in all wells, and blue fluorescence and green fluorescence were simultaneously photographed.
Using the hybrid cell counting software provided in the fluorescence microscope (Keyence, BZ-X700), co-localized spots of green fluorescence and blue fluorescence were extracted, and the number of these spots was defined as the total number of GalC-positive cells, and the oligodendrocyte differentiation ratio was calculated by the following calculation:the total number of GalC-positive cells/the number of nuclei (number of blue fluorescence spots). A significant difference test was performed by t-test between the additive-free group and the sample-added group.

[2] = target: T1, human VDR (Homo sapiens, UniProt P11473); assay: Evaluation of VDR transcription activity in human osteoblasts (HOS cells), luciferase reporter; settings: Activity (EC50, VDR transcription activity), HOS cells transfected with human VDR, human RXRα and DR3 luciferase reporter; 21 hours
T1 sequence (P11473 1-427): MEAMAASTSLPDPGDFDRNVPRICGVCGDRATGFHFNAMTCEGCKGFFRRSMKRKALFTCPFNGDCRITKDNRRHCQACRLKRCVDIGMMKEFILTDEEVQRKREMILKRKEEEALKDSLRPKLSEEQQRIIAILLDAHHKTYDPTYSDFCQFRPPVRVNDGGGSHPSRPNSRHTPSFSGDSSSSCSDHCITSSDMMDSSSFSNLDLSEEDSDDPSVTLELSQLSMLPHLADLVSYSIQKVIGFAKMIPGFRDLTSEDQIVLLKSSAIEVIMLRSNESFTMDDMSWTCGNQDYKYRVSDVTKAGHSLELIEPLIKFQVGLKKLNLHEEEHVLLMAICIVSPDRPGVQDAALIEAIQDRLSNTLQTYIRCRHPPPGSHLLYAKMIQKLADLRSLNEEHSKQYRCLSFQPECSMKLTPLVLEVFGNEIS
T1 sequence (P19793 1-462 partner): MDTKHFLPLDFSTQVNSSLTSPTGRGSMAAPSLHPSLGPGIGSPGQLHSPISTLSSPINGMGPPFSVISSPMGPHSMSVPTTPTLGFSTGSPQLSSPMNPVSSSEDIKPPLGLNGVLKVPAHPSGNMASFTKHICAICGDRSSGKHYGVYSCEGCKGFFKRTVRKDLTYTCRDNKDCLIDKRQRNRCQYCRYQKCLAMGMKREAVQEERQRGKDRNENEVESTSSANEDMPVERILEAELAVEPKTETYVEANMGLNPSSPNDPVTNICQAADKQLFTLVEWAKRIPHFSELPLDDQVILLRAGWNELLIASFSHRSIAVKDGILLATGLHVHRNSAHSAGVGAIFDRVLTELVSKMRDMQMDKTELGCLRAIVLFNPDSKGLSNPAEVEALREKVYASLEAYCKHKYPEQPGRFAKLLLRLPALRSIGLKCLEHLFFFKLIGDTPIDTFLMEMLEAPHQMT

[3] = test system: rat oligodendrocyte progenitor cells; assay: Promotive activity of rat oligodendrocyte progenitor cell differentiation-1 (MBP gene expression, mRNA); type: cell-based; settings: 4 days, MBP/β actin mRNA; for activation at 1 µM: Rattus norvegicus, Oligodendrocyte progenitor cell, 96 h, read-out: promotive activity at T3 base (MBP gene expression; DMSO 0%, T3 100%)
Outline: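 Primary OPCs from 1-day-old SD rat forebrain, isolated by shaking off mixed glial cultures and seeded at 2×10^3 cells/well in B27/CNTF (10 ng/mL) differentiation medium with compound. MBP mRNA measured by one-step TaqMan real-time PCR and expressed as MBP/β-actin ratio.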

[4] = Evaluation of calcium increasing action in normal mice (serum calcium); type: in vivo, mouse; settings: for Serum calcium concentration: repeated oral once a day, 2 weeks, C57BL/6J mice; for Calcium concentration Fluctuation range: vs vehicle 8.9 mg/dL
Protocol: After acclimatizing C57BL/6J mice (7 weeks old, male) for 1 week, the mice were divided into groups of 5 mice based on the body weight, and administration of the compound or vehicle was started. The administration solution used was a compound (in ethanol) or ethanol diluted 100-fold with 0.1% Trion X-100 (SIGMA #X100-100ML)/saline, and the repeated oral administration at once a day was performed. After administration of 2 weeks, euthanasia was performed by collecting all blood under general anesthesia.

[5] = test system: rat oligodendrocyte progenitor cells; assay: Promotive activity of rat oligodendrocyte progenitor cell differentiation-2 (immunostaining of MBP); type: cell-based; settings: vitamin D derivative 2 μM, T3 30 nM, 4 days
Outline: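 Rat OPCs prepared by shaking in separation medium about 22 h at 37 °C, 200 rpm, and collecting the supernatant.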

[6] = Evaluation of brain penetration in mice (blood and brain concentration at brain Cmax); type: in vivo, mouse; settings: 0.2 mg/kg single oral dose, C57BL/6J mice; for Concentration in blood at brain Cmax / Concentration in brain at brain Cmax: n=3; for Kp: male, C57BL/6J, mouse, brain/plasma, po, 0.2 mg/kg, read-out: Concentration ratio in brain/in blood at brain Cmax
Outline: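 Male C57BL/6J mice (8 weeks, n=3) dosed orally once at 1 […] mg/kg; plasma and brain collected at 0.25, 0.5, 1, 2, 4 and 8 h. Compound extracted with acetonitrile from brain homogenate and plasma, quantified by LC/MS/MS.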

## C=C1/C(=C\C=C2/CCC[C@]3(C)[C@@H]([C@H](C)CCN4CCOC[C@@H]4C)CC[C@@H]23)C[C@@H](O)CC1O (stereo in doubt) [Compound D045, (1R,3R,Z)-5-(2-((1R,3aS,7aR,E)-7a-methyl-1-((R)-4-((S)-3-methylmorpholino)butan-2-yl)octahydro-4H-inden-4-ylidene)ethylidene)-4-methylenecyclohexane-1,3-diol]
[1]; 10 nM
  Gal/C positive ratio Average value: 11.46
[1]; 100 nM
  Gal/C positive ratio Average value: 12.01
[1]; 1000 nM
  Gal/C positive ratio Average value: 14.93
[2]
  pEC50: 7.00 to 8.00

## C=C1/C(=C\C=C2/CCC[C@]3(C)[C@@H]([C@H](C)CCCC(C)(C)O)CC[C@@H]23)C[C@@H](O)C[C@@H]1O [1α,25-dihydroxyvitamin D3, reference compound]
[1]; 1000 nM
  promoting activity in a Gal/C-positive oligodendrocyte differentiation: 1.5 times
[3]; 1 μM
  promotive activity at T3 base (MBP gene expression; DMSO 0%, T3 100%): 0%

## C[C@H](CN1CCOCC1)[C@H]1CC[C@H]2/C(=C/C=C3C[C@@H](O)C[C@H](O)C3)CCC[C@]12C [Compound D004, (1R,3R)-5-(2-((1R,3aS,7aR,E)-7a-methyl-1-((S)-1-morpholinopropan-2-yl)-octahydro-4H-inden-4-ylidene)ethylidene)cyclohexane-1,3-diol]
[1]; 10 nM
  Gal/C positive ratio Average value: 12.61
[1]; 100 nM
  Gal/C positive ratio Average value: 15.55
[1]; 1000 nM
  Gal/C positive ratio Average value: 16.76

## C[C@H](CCN1CCOC[C@H]1C)[C@H]1CC[C@H]2/C(=C/C=C3C[C@@H](O)C[C@H](O)C3)CCC[C@]12C [Compound D042, (1R,3R)-5-(2-((1R,3aS,7aR,E)-7a-methyl-1-((R)-4-((R)-3-methylmorpholino)butan-2-yl)octahydro-4H-inden-4-ylidene)ethylidene)cyclohexane-1,3-diol]
[1]; 10 nM
  Gal/C positive ratio Average value: 12.25
[1]; 100 nM
  Gal/C positive ratio Average value: 14.27
[1]; 1000 nM
  Gal/C positive ratio Average value: 15.80
[2]
  pEC50: 7.00 to 8.00

## C[C@H](CCN1CCOC[C@@H]1C)[C@H]1CC[C@H]2/C(=C/C=C3C[C@@H](O)C[C@H](O)C3)CCC[C@]12C [Compound D043, (1R,3R)-5-(2-((1R,3aS,7aR,E)-7a-methyl-1-((R)-4-((S)-3-methylmorpholino)butan-2-yl)octahydro-4H-inden-4-ylidene)ethylidene)cyclohexane-1,3-diol]
[1]; 10 nM
  Gal/C positive ratio Average value: 12.81
[1]; 100 nM
  Gal/C positive ratio Average value: 12.27
[1]; 1000 nM
  Gal/C positive ratio Average value: 16.09
[3]
  activation at 1 µM: ≥ 20%

## C[C@H](CCCN1CCOCC1)[C@H]1CC[C@H]2/C(=C/C=C3C[C@@H](O)C[C@H](O)C3)CCC[C@]12C [Compound D044, (1R,3R)-5-(2-((1R,3aS,7aR,E)-7a-methyl-1-((R)-5-morpholinopentan-2-yl)octahydro-4H-inden-4-ylidene)ethylidene)cyclohexane-1,3-diol]
[1]; 10 nM
  Gal/C positive ratio Average value: 9.10
[1]; 100 nM
  Gal/C positive ratio Average value: 8.22
[1]; 1000 nM
  Gal/C positive ratio Average value: 12.37
[3]
  activation at 1 µM: ≥ 20%
[2]
  pEC50: 8.00 to 9.00

## C[C@H](CN1CCOC[C@@H]1C)[C@H]1CC[C@H]2/C(=C/C=C3C[C@@H](O)C[C@H](O)C3)CCC[C@]12C [Compound G004, (1R,3R)-5-(2-((1R,3aS,7aR,E)-7a-methyl-1-((S)-1-((S)-3-methylmorpholino)propan-2-yl)octahydro-4H-inden-4-ylidene)ethylidene)cyclohexane-1,3-diol]
[4]; 20 μg/kg
  Serum calcium concentration: 8.9 mg/dL
  Calcium concentration Fluctuation range: 0 mg/dL
[4]; 60 μg/kg
  Serum calcium concentration: 8.8 mg/dL
  Calcium concentration Fluctuation range: -0.1 mg/dL
[4]; 200 μg/kg
  Serum calcium concentration: 9.0 mg/dL
  Calcium concentration Fluctuation range: 0.1 mg/dL
[5]; Test 3
  Mean (number of MBP-positive cells/number of Hoechst33342-positive cells): 0.27
[6]
  Concentration in blood at brain Cmax: 72.2 ± 10.4 nM
  Concentration in brain at brain Cmax: 171.2 ± 37.4 pmol/g
  Kp: 2.35

## C[C@H](CN1CCOCC1(C)C)[C@H]1CC[C@H]2/C(=C/C=C3C[C@@H](O)C[C@H](O)C3)CCC[C@]12C [Compound G006, (1R,3R)-5-(2-((1R,3aS,7aR,E)-1-((S)-1-(3,3-dimethylmorpholino)propan-2-yl)-7a-methyloctahydro-4H-inden-4-ylidene)ethylidene)cyclohexane-1,3-diol]
[4]; 20 μg/kg
  Serum calcium concentration: 8.9 mg/dL
  Calcium concentration Fluctuation range: 0 mg/dL
[4]; 60 μg/kg
  Serum calcium concentration: 8.9 mg/dL
  Calcium concentration Fluctuation range: 0 mg/dL
[4]; 200 μg/kg
  Serum calcium concentration: 8.6 mg/dL
  Calcium concentration Fluctuation range: -0.3 mg/dL
[5]; Test 4
  Mean (number of MBP-positive cells/number of Hoechst33342-positive cells): 0.50
[6]
  Concentration in blood at brain Cmax: 58.9 ± 0.5 nM
  Concentration in brain at brain Cmax: 137.8 ± 11.5 pmol/g
  Kp: 2.38
